# From publication PMC13195669, “GPR3 Ligands Discovered through Combined Virtual and Conformational Biosensor-Based Screening” (Journal of the American Chemical Society, 2026)
# Tests used:
# S1P receptor 1 (S1PR1) = molecular target: T1, S1P receptor 1 (S1PR1) (Homo sapiens, UniProt P21453); experiment: cAMP GloSensor 22F, agonist-stimulated S1PR1; type: cell-based; conditions: preincubation with 100 μM or 10 μM; 10 µM forskolin
# T1 construct: expressed in transfected cells; host or cells: HEK293A, transient
# Protocol: (§1) Next, we used the classical cAMP GloSensor technology to assess the target selectivity profile of 33. […] In addition, we tested the effects of 33 on cAMP changes mediated by agonist-stimulated GPCRs phylogenetically close to GPR3 and coupling to Gs or Gi/o proteins.
# (§2) BRET-based GPCR conformational sensor experiments
# (§3) Cells expressing the conformational GPCR biosensors were grown for 24 h (stable cells) or 48 h (transiently transfected cells) in white 96-well plates and washed with 100 µl of HBSS. After washing, cells were incubated for 2 minutes with a 1/1000 solution of the furimazine stock solution (Promega; cat. no. N1662). Three baseline BRET reads were recorded and averaged prior to the addition of serial dilutions of ligands or veh icle control and subsequent BRET reads. […] BRE T donor emission was quantified with a 470/80 nm monochromator. […] Experiments were carried out using a CLARIOstar plate reader.
# (§4) FRET- and BRET-based measurements of cAMP levels and Gs dissociation/reassociation Transfected cells grown in black 96-well plates were washed twice with 100 µl of HBSS 48 h after transfection and incubated with HBSS. […] Three baseline FRET/BRET reads were recorded and averaged prior to the addition of serial dilutions of ligands or vehicle control and sub-sequent FRET/BRET reads. […] FRET donor emission was quantified with a 480/10 nm filter. […]
# (§5) Luminescence measurement using the cAMP GloSensor™ 22F […]
# [1] = molecular target: T2, adenosine A2B receptor (A2BR) (Homo sapiens, UniProt P29275); experiment: cAMP GloSensor 22F, agonist-stimulated A2BR; type: cell-based; conditions: preincubation with 100 μM or 10 μM
# T2 construct: expressed in transfected cells; host or cells: HEK293A, transient
# T2 sequence (P29275 1-332): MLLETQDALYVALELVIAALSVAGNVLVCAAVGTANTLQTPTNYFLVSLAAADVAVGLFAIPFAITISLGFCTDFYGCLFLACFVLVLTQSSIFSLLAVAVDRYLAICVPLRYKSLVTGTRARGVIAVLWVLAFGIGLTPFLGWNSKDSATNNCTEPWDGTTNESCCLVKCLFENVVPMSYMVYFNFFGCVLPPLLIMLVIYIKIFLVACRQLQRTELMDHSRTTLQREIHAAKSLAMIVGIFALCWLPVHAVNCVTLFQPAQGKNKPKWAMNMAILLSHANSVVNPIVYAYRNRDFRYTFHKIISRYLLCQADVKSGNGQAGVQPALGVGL
# Protocol: as §1, §2, §3, §4, §5
# T1 sequence (P21453 whole entry, species assumed): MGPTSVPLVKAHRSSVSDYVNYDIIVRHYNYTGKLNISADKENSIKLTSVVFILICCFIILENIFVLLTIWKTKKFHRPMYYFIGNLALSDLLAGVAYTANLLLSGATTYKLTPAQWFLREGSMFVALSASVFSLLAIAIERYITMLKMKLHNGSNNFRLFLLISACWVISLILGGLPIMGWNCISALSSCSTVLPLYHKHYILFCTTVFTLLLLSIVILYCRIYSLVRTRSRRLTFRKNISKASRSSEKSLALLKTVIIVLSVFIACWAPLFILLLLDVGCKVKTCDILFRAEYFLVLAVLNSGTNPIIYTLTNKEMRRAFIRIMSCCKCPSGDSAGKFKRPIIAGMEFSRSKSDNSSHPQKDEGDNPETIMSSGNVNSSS
compound,measurement,setting,value
N=c1n(Cc2ccccc2)c2ccccc2n1CC1CC1 [compound 33],effect on agonist-induced cAMP change mediated by S1PR1,S1P receptor 1 (S1PR1),neither 100 μM nor 10 μM 33 significantly altered
same,effect on agonist-induced cAMP change mediated by A2BR,[1],neither 100 μM nor 10 μM 33 significantly altered
